Measurements: paper PMC5218480 (PLoS ONE, 2017)

Test system: MV-4-11 cells
Assay: Gene expression microarray analysis (Affymetrix PrimeView) and GSEA
Format: cell-based, human
Design: RFU PODN (11730768_x_at) / Fold change /veh PODN (11730768_x_at) / RFU LINC00158 (11744669_a_at) / Fold change /veh LINC00158 (11744669_a_at) / RFU DUSP10 (11751237_a_at) / Fold change /veh DUSP10 (11751237_a_at) / RFU ID3 (11757404_x_at) / Fold change /veh ID3 (11757404_x_at) / RFU PLEKHG5 (11737974_s_at) / Fold change /veh PLEKHG5 (11737974_s_at) / RFU LRRC4B (11730491_at) / Fold change /veh LRRC4B (11730491_at) / RFU GIMAP4 (11747438_a_at) / Fold change /veh GIMAP4 (11747438_a_at) / RFU KRT8 (11758183_x_at) / Fold change /veh KRT8 (11758183_x_at) / RFU CNN1 (11734310_a_at) / Fold change /veh CNN1 (11734310_a_at) / RFU VPS37D (11726825_at) / Fold change /veh VPS37D (11726825_at) / RFU C10orf10 (11716522_x_at) / Fold change /veh C10orf10 (11716522_x_at) / RFU KIR2DL2 /// KIR2DL4 /// KIR2DL5A /// KIR2DL5B /// KIR2DS1 /// KIR2DS2 /// KIR2DS3 /// KIR2DS4 /// KIR3DL3 /// KIR3DL3 /// KIR3DS1 (11738374_at) / Fold change /veh KIR2DL2 /// KIR2DL4 /// KIR2DL5A /// KIR2DL5B /// KIR2DS1 /// KIR2DS2 /// KIR2DS3 /// KIR2DS4 /// KIR3DL3 /// KIR3DL3 /// KIR3DS1 (11738374_at) / RFU C1QL1 (11718748_at) / Fold change /veh C1QL1 (11718748_at) / RFU TMPRSS4 (11747572_a_at) / Fold change /veh TMPRSS4 (11747572_a_at) / RFU HAMP (11756126_x_at) / Fold change /veh HAMP (11756126_x_at) / RFU RNFT2 (11725882_a_at) / Fold change /veh RNFT2 (11725882_a_at) / RFU NR4A2 (11747474_a_at) / Fold change /veh NR4A2 (11747474_a_at) / RFU ABCC12 (11746883_a_at) / Fold change /veh ABCC12 (11746883_a_at) / RFU TMEM136 (11760407_x_at) / Fold change /veh TMEM136 (11760407_x_at) / RFU CLDN22 /// WWC2 (11732394_at) / Fold change /veh CLDN22 /// WWC2 (11732394_at) / RFU HLA-DPB1 (11760878_x_at) / Fold change /veh HLA-DPB1 (11760878_x_at) / RFU SPINT1 (11716480_a_at) / Fold change /veh SPINT1 (11716480_a_at) / RFU GAP43 (11754022_s_at) / Fold change /veh GAP43 (11754022_s_at) / RFU A4GNT (11735810_at) / Fold change /veh A4GNT (11735810_at) / RFU PRB3 (11715151_x_at) / Fold change /veh PRB3 (11715151_x_at) / RFU TUBB4B (11761932_at) / Fold change /veh TUBB4B (11761932_at) / RFU CAPN14 (11732068_a_at) / Fold change /veh CAPN14 (11732068_a_at) / RFU TMCC2 (11721928_a_at) / Fold change /veh TMCC2 (11721928_a_at) / RFU IRGQ (11745062_a_at) / Fold change /veh IRGQ (11745062_a_at) / RFU FAM174B (11720279_a_at) / Fold change /veh FAM174B (11720279_a_at) / RFU TMPRSS4 (11748680_a_at) / Fold change /veh TMPRSS4 (11748680_a_at) / RFU FAM212B (11763350_a_at) / Fold change /veh FAM212B (11763350_a_at) / RFU PLEKHG5 (11743358_a_at) / Fold change /veh PLEKHG5 (11743358_a_at) / RFU ZSCAN30 (11745921_a_at) / Fold change /veh ZSCAN30 (11745921_a_at) / RFU CMKLR1 (11741424_a_at) / Fold change /veh CMKLR1 (11741424_a_at) / RFU LOC101060620 /// MAPK8IP1 (11723275_at) / Fold change /veh LOC101060620 /// MAPK8IP1 (11723275_at) / RFU SPTSSB (11747773_x_at) / Fold change /veh SPTSSB (11747773_x_at) / RFU PRSS12 (11739890_at) / Fold change /veh PRSS12 (11739890_at) / RFU BIN1 (11741810_x_at) / Fold change /veh BIN1 (11741810_x_at) / RFU WNT11 (11732464_a_at) / Fold change /veh WNT11 (11732464_a_at) / RFU C10orf10 (11716521_a_at) / Fold change /veh C10orf10 (11716521_a_at) / RFU C5orf56 (11738089_at) / Fold change /veh C5orf56 (11738089_at) / RFU CYB561 (11721691_x_at) / Fold change /veh CYB561 (11721691_x_at) / RFU ANKRD19P (11752326_a_at) / Fold change /veh ANKRD19P (11752326_a_at) / RFU OR2T12 /// OR2T33 /// OR2T8 (11738714_s_at) / Fold change /veh OR2T12 /// OR2T33 /// OR2T8 (11738714_s_at) / RFU VCAN (11748164_a_at) / Fold change /veh VCAN (11748164_a_at) / RFU JSRP1 (11732532_at) / Fold change /veh JSRP1 (11732532_at) / RFU KRTAP10-11 (11738290_x_at) / Fold change /veh KRTAP10-11 (11738290_x_at) / RFU MYO3A (11730013_a_at) / Fold change /veh MYO3A (11730013_a_at) / RFU EBF3 (11725865_a_at) / Fold change /veh EBF3 (11725865_a_at) / RFU CAMK2N1 (11719241_x_at) / Fold change /veh CAMK2N1 (11719241_x_at) / RFU C5orf56 (11738088_a_at) / Fold change /veh C5orf56 (11738088_a_at) / RFU OLFML3 (11715873_a_at) / Fold change /veh OLFML3 (11715873_a_at) / RFU LOC100653217 /// NTM (11731650_a_at) / Fold change /veh LOC100653217 /// NTM (11731650_a_at) / RFU MAPK11 (11762145_a_at) / Fold change /veh MAPK11 (11762145_a_at) / RFU FIZ1 (11724087_x_at) / Fold change /veh FIZ1 (11724087_x_at) / RFU OASL (11726364_x_at) / Fold change /veh OASL (11726364_x_at) / RFU SOX15 (11748057_x_at) / Fold change /veh SOX15 (11748057_x_at) / RFU CD79A (11719716_a_at) / Fold change /veh CD79A (11719716_a_at) / RFU HIST1H1D (11736915_at) / Fold change /veh HIST1H1D (11736915_at) / RFU CASKIN2 (11723855_a_at) / Fold change /veh CASKIN2 (11723855_a_at) / RFU LOC730098 (11760151_x_at) / Fold change /veh LOC730098 (11760151_x_at) / RFU OR4N2 (11742367_at) / Fold change /veh OR4N2 (11742367_at) / RFU PRRT2 (11749266_a_at) / Fold change /veh PRRT2 (11749266_a_at) / RFU SNX32 (11753110_a_at) / Fold change /veh SNX32 (11753110_a_at) / RFU CDHR5 (11726645_a_at) / Fold change /veh CDHR5 (11726645_a_at) / RFU RCAN1 (11760418_a_at) / Fold change /veh RCAN1 (11760418_a_at) / RFU FAM167A (11723789_a_at) / Fold change /veh FAM167A (11723789_a_at) / RFU FAM26E (11764081_at) / Fold change /veh FAM26E (11764081_at) / RFU ISYNA1 (11749810_s_at) / Fold change /veh ISYNA1 (11749810_s_at) / RFU ACY1 (11761880_at) / Fold change /veh ACY1 (11761880_at) / RFU 11764098_at / Fold change /veh 11764098_at / RFU SAMD14 (11745864_x_at) / Fold change /veh SAMD14 (11745864_x_at) / RFU NPB (11741838_a_at) / Fold change /veh NPB (11741838_a_at) / RFU TMPRSS6 (11731388_a_at) / Fold change /veh TMPRSS6 (11731388_a_at) / RFU KRTAP10-2 (11738614_at) / Fold change /veh KRTAP10-2 (11738614_at) / RFU ARHGAP8 /// PRR5-ARHGAP8 (11727945_x_at) / Fold change /veh ARHGAP8 /// PRR5-ARHGAP8 (11727945_x_at) / RFU KRTAP5-7 /// NADSYN1 (11734609_at) / Fold change /veh KRTAP5-7 /// NADSYN1 (11734609_at) / RFU RASL12 (11751679_a_at) / Fold change /veh RASL12 (11751679_a_at) / RFU CDKN2B (11736163_a_at) / Fold change /veh CDKN2B (11736163_a_at) / RFU PRF1 (11729649_at) / Fold change /veh PRF1 (11729649_at) / RFU, ZNF638 /// ZNF638-IT1 / Fold change vs veh, ZNF638 /// ZNF638-IT1 / RFU, PANK3 / Fold change vs veh, PANK3 / RFU, SH3YL1 / Fold change vs veh, SH3YL1 / RFU, ZEB2 / Fold change vs veh, ZEB2 / RFU, NRIP1 / Fold change vs veh, NRIP1 / RFU, PTTG1IP / Fold change vs veh, PTTG1IP / RFU, CAPN2 / Fold change vs veh, CAPN2 / RFU, MED14 / Fold change vs veh, MED14 / RFU, SNORA58 / Fold change vs veh, SNORA58 / RFU, C1orf63 / Fold change vs veh, C1orf63 / RFU, LRRFIP1 / Fold change vs veh, LRRFIP1 / RFU, NDUFAF7 / Fold change vs veh, NDUFAF7 / RFU, SLC12A2 / Fold change vs veh, SLC12A2 / RFU, IBTK / Fold change vs veh, IBTK / RFU, ESF1 / Fold change vs veh, ESF1 / Fold change vs veh, TMEM50B / RFU, TAOK1 / Fold change vs veh, TAOK1 / RFU, ACBD3 / Fold change vs veh, ACBD3 / RFU, TMA16 / Fold change vs veh, TMA16 / RFU, RWDD3 / Fold change vs veh, RWDD3 / RFU, BCAT1 / Fold change vs veh, BCAT1 / RFU, EDEM3 / Fold change vs veh, EDEM3 / RFU, TMEM33 / Fold change vs veh, TMEM33 / RFU, WDR75 / Fold change vs veh, WDR75 / RFU, AHCTF1 / Fold change vs veh, AHCTF1 / RFU, TFRC / Fold change vs veh, TFRC / RFU, ZDHHC17 / Fold change vs veh, ZDHHC17 / RFU, NOM1 / Fold change vs veh, NOM1 / RFU, ARL8B / Fold change vs veh, ARL8B / RFU, ZBTB11 / Fold change vs veh, ZBTB11 / RFU, TAMM41 / Fold change vs veh, TAMM41 / RFU, KIAA1704 /// LOC100996395 / Fold change vs veh, KIAA1704 /// LOC100996395 / RFU, ING1 / Fold change vs veh, ING1 / RFU, TRMT61B / Fold change vs veh, TRMT61B / RFU, FUBP3 / Fold change vs veh, FUBP3 / RFU, TP53 / Fold change vs veh, TP53 / RFU, TNKS2 / Fold change vs veh, TNKS2 / RFU, ZFP14 / Fold change vs veh, ZFP14 / RFU, ACTR2 / Fold change vs veh, ACTR2 / RFU, PPP3R1 / Fold change vs veh, PPP3R1 / RFU, PIK3R1 / Fold change vs veh, PIK3R1 / RFU, HNRNPA1 / Fold change vs veh, HNRNPA1 / RFU, RNF170 / Fold change vs veh, RNF170 / RFU, ZNF28 / Fold change vs veh, ZNF28 / RFU, RNGTT / Fold change vs veh, RNGTT / RFU, OGT / Fold change vs veh, OGT / RFU, BRD1 / Fold change vs veh, BRD1 / RFU, MARS / Fold change vs veh, MARS / RFU, ZNF655 / Fold change vs veh, ZNF655 / RFU, FAHD1 / Fold change vs veh, FAHD1 / RFU, BDP1 / Fold change vs veh, BDP1 / RFU, LRRCC1 / Fold change vs veh, LRRCC1 / RFU, ARID1A / Fold change vs veh, ARID1A / RFU, ZNF146 / Fold change vs veh, ZNF146 / RFU, ZNF330 / Fold change vs veh, ZNF330 / RFU, GPN3 / Fold change vs veh, GPN3 / RFU, C9orf123 / Fold change vs veh, C9orf123 / RFU, N4BP2L2 / Fold change vs veh, N4BP2L2 / RFU, ARFIP1 / Fold change vs veh, ARFIP1 / RFU, FAM179B / Fold change vs veh, FAM179B / RFU, BCL10 / Fold change vs veh, BCL10 / RFU, UHRF1BP1L / Fold change vs veh, UHRF1BP1L / RFU, BET1 / Fold change vs veh, BET1 / RFU, CNOT2 / Fold change vs veh, CNOT2 / RFU, ZNF268 / Fold change vs veh, ZNF268 / Fold change vs veh, ZNF507 / RFU, DGCR2 / Fold change vs veh, DGCR2 / RFU, WDSUB1 / Fold change vs veh, WDSUB1 / Fold change vs veh, HSP90B1 /// MIR3652 / RFU, ADSS / Fold change vs veh, ADSS / RFU, GK / Fold change vs veh, GK / RFU, ZNF148 / Fold change vs veh, ZNF148 / RFU, TAF9 / Fold change vs veh, TAF9 / RFU, SLC1A5 / Fold change vs veh, SLC1A5 / RFU, SLMO2 / Fold change vs veh, SLMO2 / RFU, ABCC4 / Fold change vs veh, ABCC4 / RFU, LOC101060439 /// RAP1B / Fold change vs veh, LOC101060439 /// RAP1B / RFU, RFX7 / Fold change vs veh, RFX7 / RFU, GTPBP10 / Fold change vs veh, GTPBP10 / RFU, CNEP1R1 / Fold change vs veh, CNEP1R1 / RFU, BIVM-ERCC5 /// ERCC5 / Fold change vs veh, BIVM-ERCC5 /// ERCC5 / RFU, ILF3 / Fold change vs veh, ILF3 / RFU 11762660_at / Fold change /veh 11762660_at / RFU VCAN (11757783_s_at) / Fold change /veh VCAN (11757783_s_at) / RFU DDX43 (11728927_at) / Fold change /veh DDX43 (11728927_at) / RFU KRT8 (11758188_x_at) / Fold change /veh KRT8 (11758188_x_at) / RFU NKD1 (11759106_at) / Fold change /veh NKD1 (11759106_at) / RFU SRD5A1 (11742802_a_at) / Fold change /veh SRD5A1 (11742802_a_at) / RFU TPSAB1 /// TPSB2 (11721975_s_at) / Fold change /veh TPSAB1 /// TPSB2 (11721975_s_at) / RFU GSTM3 (11746129_a_at) / Fold change /veh GSTM3 (11746129_a_at) / RFU IL23R (11737362_x_at) / Fold change /veh IL23R (11737362_x_at) / RFU TMEM51 (11727254_a_at) / Fold change /veh TMEM51 (11727254_a_at) / RFU PIWIL2 (11732686_x_at) / Fold change /veh PIWIL2 (11732686_x_at) / RFU ORM1 (11744905_x_at) / Fold change /veh ORM1 (11744905_x_at) / RFU CCDC152 (11743942_at) / Fold change /veh CCDC152 (11743942_at) / RFU ECM1 (11717891_a_at) / Fold change /veh ECM1 (11717891_a_at) / RFU IL23R (11748794_a_at) / Fold change /veh IL23R (11748794_a_at) / RFU TNFAIP8L3 (11732012_x_at) / Fold change /veh TNFAIP8L3 (11732012_x_at) / RFU MBOAT4 (11741988_at) / Fold change /veh MBOAT4 (11741988_at) / RFU 11764193_at / Fold change /veh 11764193_at / RFU TMEM53 (11763286_at) / Fold change /veh TMEM53 (11763286_at) / RFU MAGEB2 (11727129_at) / Fold change /veh MAGEB2 (11727129_at) / RFU TMEM200A (11744735_a_at) / Fold change /veh TMEM200A (11744735_a_at) / RFU CCDC152 (11751479_a_at) / Fold change /veh CCDC152 (11751479_a_at) / RFU FAM211A (11726209_a_at) / Fold change /veh FAM211A (11726209_a_at) / RFU RGS16 (11746705_a_at) / Fold change /veh RGS16 (11746705_a_at) / RFU VCAN (11755009_s_at) / Fold change /veh VCAN (11755009_s_at) / RFU RHOB (11743442_s_at) / Fold change /veh RHOB (11743442_s_at) / RFU RGS16 (11720943_a_at) / Fold change /veh RGS16 (11720943_a_at) / RFU RGS16 (11720944_at) / Fold change /veh RGS16 (11720944_at) / RFU, VPS4B / Fold change vs veh, VPS4B / RFU, CREB1 / Fold change vs veh, CREB1 / RFU, DNAJC13 / Fold change vs veh, DNAJC13 / RFU, GNAQ / Fold change vs veh, GNAQ / RFU, CDK5R1 / Fold change vs veh, CDK5R1 / RFU, ZRANB3 / Fold change vs veh, ZRANB3 / RFU, CUL4A / Fold change vs veh, CUL4A / RFU, CCNY / Fold change vs veh, CCNY / RFU, UFL1 / Fold change vs veh, UFL1 / RFU, COG3 / Fold change vs veh, COG3 / RFU, DIAPH2 / Fold change vs veh, DIAPH2 / RFU, SKA2 / Fold change vs veh, SKA2 / RFU, AFF3 / Fold change vs veh, AFF3 / RFU, LMF1 / Fold change vs veh, LMF1 / RFU, IPO11 / Fold change vs veh, IPO11 / RFU, DFFB / Fold change vs veh, DFFB / RFU, FOXP1 / Fold change vs veh, FOXP1 / RFU, CARD8 / Fold change vs veh, CARD8 / RFU, STRN3 / Fold change vs veh, STRN3 / RFU, ADK / Fold change vs veh, ADK / RFU, RASSF2 / Fold change vs veh, RASSF2 / RFU, WIPF1 / Fold change vs veh, WIPF1 / RFU, LARP1B / Fold change vs veh, LARP1B / RFU, RASA1 / Fold change vs veh, RASA1 / RFU, RB1 / Fold change vs veh, RB1 / RFU, PPFIA1 / Fold change vs veh, PPFIA1 / RFU, MAT2A / Fold change vs veh, MAT2A / RFU, CCT5 / Fold change vs veh, CCT5 / RFU, WDR92 / Fold change vs veh, WDR92 / RFU, CUX1 / Fold change vs veh, CUX1 / RFU, TTC7A / Fold change vs veh, TTC7A / RFU, TMEM135 / Fold change vs veh, TMEM135 / RFU, DEPTOR / Fold change vs veh, DEPTOR / RFU, CPM / Fold change vs veh, CPM / RFU, DNAJB6 / Fold change vs veh, DNAJB6 / RFU, CACNA2D3 / Fold change vs veh, CACNA2D3 / RFU, DTX4 / Fold change vs veh, DTX4 / RFU, TFCP2 / Fold change vs veh, TFCP2 / RFU, GMCL1 /// GMCL1P1 / Fold change vs veh, GMCL1 /// GMCL1P1 / RFU, AEBP2 / Fold change vs veh, AEBP2 / RFU, SNHG1 /// SNORD22 /// SNORD25 /// SNORD26 /// SNORD27 /// SNORD28 /// SNORD29 /// SNORD31 / Fold change vs veh, SNHG1 /// SNORD22 /// SNORD25 /// SNORD26 /// SNORD27 /// SNORD28 /// SNORD29 /// SNORD31 / Fold change (Aza/veh), C12orf56 (ProbeSet 11735607_a_at) / Fold change (ACY-1035/veh), C12orf56 (ProbeSet 11735607_a_at) / Fold change (Aza/veh), FGFR1OP (ProbeSet 11751329_s_at) / Fold change (ACY-1035/veh), FGFR1OP (ProbeSet 11751329_s_at) / Fold change (Aza/veh), VPS36 (ProbeSet 11739960_a_at) / Fold change (ACY-1035/veh), VPS36 (ProbeSet 11739960_a_at) / RFU SYPL1 (11715823_x_at) / Fold change /veh SYPL1 (11715823_x_at) / RFU IGFBP7 (11715501_s_at) / Fold change /veh IGFBP7 (11715501_s_at) / RFU REEP3 (11722064_at) / Fold change /veh REEP3 (11722064_at) / RFU IGLL1 (11728026_x_at) / Fold change /veh IGLL1 (11728026_x_at): dose or concentration left out as unconfirmed
Conditions: MV-4-11 cells, 48 hours

SMILES: Nc1ccc(-c2cccs2)cc1NC(=O)c1ccc2c(c1)cc(C1CC1)n2CCN1CCOCC1 [ACY-1035]
- RFU VCAN (11757783_s_at): 8.50 RFU
